From publication PMC6332220, “Synthesis, Characterization and Biological Evaluation of Some Quinoxaline Derivatives: A Promising and Potent New Class of Antitumor and Antimicrobial Agents” (Molecules, 2015)
Converted amounts (≈) assume the structure as drawn.

Assays:
[1] = tested on: MCF-7 (breast adenocarcinoma); experiment: In vitro cytotoxicity, SRB cell growth assay, MCF-7; conditions: Homo sapiens, MCF7, 48 h, read-out: IC50 (μg/mL) MCF-7
Description: (§1) The in vitro cytotoxic activity of the newly synthesized compounds against human breast cell line (MCF7), non-small cell lung cancer NCIH460, CNS cancer SF-268 and WI 38 (normal fibroblast cells) were evaluated using doxorubicin as the reference drug according to the method reported by Skehan et al..
(§2) The newly synthesized compounds were evaluated in vitro against three human cancer cell lines; which are MCF-7 (breast adenocarcinoma), NCI-H460 (non-small cell lung cancer) and SF-268 (CNS cancer), and WI 38 (normal fibroblast cells) were used in this study. MCF-7 was obtained from the European Collection of Cell Cultures (ECACC, Salisbury, UK) but NCI-H460, SF-268 and WI 38 were kindly provided by the National Cancer Institute (NCI, Cairo, Egypt). They grow as monolayer and routinely maintained RPMI-1640 medium supplemented with 5% heat inactivated fetal bovine serum (FBS), 2 mM glutamine and antibiotics (penicillin 100 U/mL, streptomycin 100 µg/mL), at 37 °C in a humidified atmosphere containing 5% CO2. Exponentially growing cells were obtained by plating 1.5 × 10^5 cells/mL for MCF-7 and SF-268, and 0.75 × 10^4 cells/mL for NCI-H460 followed by 24 h of incubation. The effect of the vehicle solvent (DMSO) on the growth of these cell lines was evaluated in all experiments by exposing untreated control cells to the maximum concentration (0.5%) of DMSO used in each assay.
(§3) The effect of compounds on the in vitro growth of human tumor cell lines were evaluated according to the procedure adopted by the National Cancer Institute ([…]) in the “In vitro Anticancer Drug Discovery Screen” that uses the protein-binding dye sulforhodamine B (SRB) to assess cell growth. In the assay protocol, all cells were incubated at 37 °C under humidified atmosphere containing 5% CO2. Briefly, exponentially cells growing in 96-well plates were then exposed for 48 h to five serial concentrations of each compound, starting from a maximum concentration of 150 μg/mL. Following this exposure period adherent cells were fixed, washed and stained. The bound stain was solubilized and the absorbance was measured at 492 nm in a plate reader (Bio-Tek Instruments Inc., Power wave XS, Winston, NC, USA). For each test compound and cell line, a dose response curve was obtained and the inhibitory concentration of 50% (IC50), corresponding to the concentration of the compounds that inhibited 50% of the net cell growth was calculated as described elsewhere. Doxorubicin was used as a positive control and tested in the same manner.

SF-268 (CNS cancer) = experiment: In vitro cytotoxicity, SRB cell growth assay, SF-268; conditions: Homo sapiens, SF-268, 48 h, read-out: IC50 (μg/mL) SF-268
Description: as §1, §2, §3

[2] = tested on: WI 38 (normal fibroblast cells); experiment: In vitro cytotoxicity, SRB cell growth assay, normal cells WI 38; assay type: cell-based, human; conditions: 48 h exposure, non-cytotoxic = IC50 >100 μg/mL; for IC50: Homo sapiens, WI-38, 48 h
Description: as §1, §2, §3

Pseudomonas aeruginosa [3] = experiment: Disk diffusion, Pseudomonas aeruginosa; assay type: cell-based; conditions: Gram negative, 8.0 mm disks, 10 μL
Description: The disk diffusion method was used for determination of the antimicrobial activity using ampicillin, gentamicin and amphotericin B as reference drugs. The results were recorded for each compounds as the average diameter as inhibition zones (IZ) of bacterial or fungal growth around the discs in mm as shown in Table 2.
Antimicrobial activities were carried out against highly pathogenic strains; three strains of Gram positive bacteria (Bacillus subtilis, Staphylococcus aureus and Streptococcus faecalis), four strains of Gram negative bacteria (Escherichia coli, Neisseria gonorrhoeae, Pseudomonas aeruginosa and Salmonella typhimurium) and three fungi strains (Aspergillus flavus, Aspergillus fumigatus and Candida albicans) isolated from primary agar plates. Antimicrobial activity of the tested samples was determined using a modified Kriby-Bauer disk diffusion method. Briefly, 100 µL of the test bacteria/fungi were grown in 10 mL of fresh media until they reached a count approximately 10^8 cells/mL for bacteria or 10^5 cells/mL for fungi. 100 µL of microbial suspension was spread onto agar plates corresponding to the broth in which they were maintained. The inoculated plates of bacterial strains were incubated at 35–37 °C for 24–48 h, while the inoculated plates of fungal strains such as A. flavus and A. fumigatus were incubated at 25 °C for 48 h and yeast as C. albicans was incubated at 30 °C for 24–48 h.
The agar disk diffusion (qualitative) method was used in this investigation for determination of the preliminary antibacterial and antifungal activities. The agar used was Mueller-Hinton agar plates that are rigorously tested for composition and pH. Further the depth of the agar in the plate is a factor to be considered in the disk diffusion method.
Reference drugs: ampicillin was used as a standard antibacterial drug for Gram positive bacteria, gentamicin as a standard antibacterial drug for Gram negative bacteria and amphotericin B as antifungal standard drug.
Bacterial and fungal strains were spread onto the surface of the agar plates using sterile cotton swabs. For evaluation of antibacterial activities, blank paper disks (Schleicher & Schuell, Alicante, Spain) with a diameter of 8.0 mm were saturated with 10 μL of tested concentration of the stock solutions. Disks were dried and then placed onto inoculated agar plates. The plates of bacterial strains were reincubated at 35–37 °C for 24–48 h, while the plates of fungal strains such as A. flavus and A. fumigatus were reincubated at 25 °C for 48 h and yeast as C. albicans was reincubated at 30 °C for 24–48 h as mentioned above. […] For an accurate analysis, tests were run in triplicate for each strain to avoid any error as described in Table 2.

Bacillus subtilis = experiment: MIC by broth dilution, Bacillus subtilis; assay type: cell-based; conditions: Bacillus subtilis, Gram positive, 0.98-125 µg/mL, read-out: Minimum Inhibitory Concentration (MIC) (µg/mL) Bacillus subtilis
Description: (§4) In this study, MIC (quantitative method) was used for evaluation of the antimicrobial activity of tested compounds. Screening was evaluated in vitro using the Broth dilution method according to CLSI [45]. All the bacteria were incubated and activated at 30 °C for 24 h inoculation into nutrient broth and the fungi were incubated in malt extract broth for 48 h. The compounds were dissolved in DMSO and then diluted using […] Mueller-Hinton broth. […] In each case triplicate tests were performed and the average was taken as the final reading. The tubes were then inoculated with the test organisms, grown in their suitable broth at 37 °C for 24 h for tested microorganisms (1 × 10^8 CFU/mL for bacteria and 1 × 10^6 CFU/mL of fungi), each 5 mL received 0.1 mL of the above inoculum and incubated at 37 °C for 24 h.

Staphylococcus aureus = experiment: MIC by broth dilution, Staphylococcus aureus; assay type: cell-based; conditions: Staphylococcus aureus, Gram positive, 0.98-125 µg/mL, read-out: Minimum Inhibitory Concentration (MIC) (µg/mL) Staphylococcus aureus
Description: as §4

Streptococcus faecalis = experiment: MIC by broth dilution, Streptococcus faecalis; assay type: cell-based; conditions: Enterococcus faecalis, Gram positive, 0.98-125 µg/mL, read-out: Minimum Inhibitory Concentration (MIC) (µg/mL) Streptococcus faecalis
Description: as §4

Pseudomonas aeruginosa [4] = experiment: MIC by broth dilution, Pseudomonas aeruginosa; assay type: cell-based; conditions: Pseudomonas aeruginosa, Gram negative, 0.98-125 µg/mL, read-out: Minimum Inhibitory Concentration (MIC) (µg/mL) Pseudomonas aeruginosa
Description: as §4

SMILES	MIC (Bacillus subtilis)	MIC (Staphylococcus aureus)	MIC (Streptococcus faecalis)	MIC (Pseudomonas aeruginosa [4])	melting point	IC50 [1]	IC50 (SF-268 (CNS cancer))	IC50 [2]	Inhibition Zone Diameter (IZ) (mm) Pseudomonas aeruginosa (Pseudomonas aeruginosa [3])	IC50 (μg/mL) WI 38 [2]
Clc1nc2ccc(Br)cc2n2nnnc12 [Compound 4, 8-Bromo-4-chlorotetrazolo[1,5-a]quinoxaline]	0.98 µg/mL (≈ 3.44 µM)	3.9 µg/mL (≈ 13.7 µM)	0.98 µg/mL (≈ 3.44 µM)	> 125 µg/mL	199 to 201 °C	0.02 ± 0.006 µg/mL (≈ 0.0703 µM)	0.06 ± 0.003 µg/mL (≈ 0.211 µM)	> 100 µg/mL	21 mm	–
Cc1cc(C)n(-c2nc3cc(Br)ccc3nc2NN)n1 [Compound 14, 6-Bromo-3-(3,5-dimethyl-1H-pyrazol-1-yl)-2-hydrazinyl quinoxaline]	1.95 µg/mL (≈ 5.85 µM)	1.95 µg/mL (≈ 5.85 µM)	1.95 µg/mL (≈ 5.85 µM)	125 µg/mL (≈ 375 µM)	164 to 166 °C	30.3 ± 3.86 µg/mL (≈ 91 µM)	42.1 ± 5.58 µg/mL (≈ 126 µM)	58.7 ± 8.65 µg/mL (≈ 176 µM)	12 mm	–
Brc1ccc2c(c1)n1nnnc1c1nnnn21 [Compound 11, 9-Bromoditetrazolo[1,5-a:5′,1′-c]quinoxaline]	0.98 µg/mL (≈ 3.37 µM)	7.81 µg/mL (≈ 26.8 µM)	62.5 µg/mL (≈ 215 µM)	125 µg/mL (≈ 429 µM)	–	1.18 ± 1.03 µg/mL (≈ 4.05 µM)	2.86 ± 4.92 µg/mL (≈ 9.83 µM)	> 100 µg/mL	14 mm	56.85 ± 4.05 µg/mL (≈ 195 µM)
NNc1nc2ccc(Br)cc2nc1NN [Compound 9, 6-Bromo-2,3-dihydrazinylquinoxaline]	0.98 µg/mL (≈ 3.64 µM)	1.95 µg/mL (≈ 7.25 µM)	0.98 µg/mL (≈ 3.64 µM)	125 µg/mL (≈ 465 µM)	–	37.1 ± 7.34 µg/mL (≈ 138 µM)	38.9 ± 2.63 µg/mL (≈ 145 µM)	30.6 ± 6.21 µg/mL (≈ 114 µM)	31 mm	–
NNc1nc2cc(Br)ccc2nc1Cl [Compound 3, 6-Bromo-2-chloro-3-hydrazinylquinoxaline]	1.95 µg/mL (≈ 7.13 µM)	3.9 µg/mL (≈ 14.3 µM)	15.6 µg/mL (≈ 57.1 µM)	125 µg/mL (≈ 457 µM)	201 to 203 °C	36 ± 7.33 µg/mL (≈ 132 µM)	30.6 ± 2.39 µg/mL (≈ 112 µM)	32.2 ± 6.54 µg/mL (≈ 118 µM)	14 mm	–
NC1=NN(c2nc3ccc(Br)cc3nc2N2N=C(N)CC2=O)C(=O)C1 [Compound 16, 6-Bromo-2,3-bis(3-amino-1H-pyrazol-5(4H)-one)quinoxaline]	1.95 µg/mL (≈ 4.84 µM)	1.95 µg/mL (≈ 4.84 µM)	31.2 µg/mL (≈ 77.5 µM)	125 µg/mL (≈ 310 µM)	232 to 233 °C	12.8 ± 1.46 µg/mL (≈ 31.8 µM)	49.9 ± 8.64 µg/mL (≈ 124 µM)	30 ± 2.36 µg/mL (≈ 74.5 µM)	11 mm	–

Now from value to compound, other results behind:

MIC (Bacillus subtilis)	MIC (Staphylococcus aureus)	MIC (Streptococcus faecalis)	MIC (Pseudomonas aeruginosa [4])	melting point	SMILES	IC50 [1]	IC50 (SF-268 (CNS cancer))	IC50 [2]	Inhibition Zone Diameter (IZ) (mm) Pseudomonas aeruginosa (Pseudomonas aeruginosa [3])	IC50 (μg/mL) WI 38 [2]
31.2 µg/mL (≈ 93.8 µM)	62.5 µg/mL (≈ 188 µM)	62.5 µg/mL (≈ 188 µM)	125 µg/mL (≈ 375 µM)	122 to 123 °C	Brc1ccc2nc(N3CCCCC3)c3nnnn3c2c1 [Compound 5a, 8-Bromo-4-(piperidin-1-yl)tetrazolo[1,5-a]quinoxaline]	0.01 ± 0.001 µg/mL (≈ 0.03 µM)	0.02 ± 0.008 µg/mL (≈ 0.06 µM)	> 100 µg/mL	11 mm	–
1.95 µg/mL (≈ 5.82 µM)	1.95 µg/mL (≈ 5.82 µM)	3.9 µg/mL (≈ 11.6 µM)	> 125 µg/mL	144 to 146 °C	Brc1ccc2nc(N3CCOCC3)c3nnnn3c2c1 [Compound 5b, 8-Bromo-4-(morpholin-4-yl)tetrazolo[1,5-a]quinoxaline]	0.02 ± 0.002 µg/mL (≈ 0.0597 µM)	0.06 ± 0.008 µg/mL (≈ 0.179 µM)	> 100 µg/mL	10 mm	–
